{
  "source": "patent US20260325575A1",
  "about": "“THE USE OF BORATE DERIVATIVES IN THE TREATMENT OF NEURODEGENERATIVE DISEASES” (YEDITEPE UNIVERSITESI, priority 2022, published 2026)",
  "key": {"[1]": {"test_system": "SOD1 G93A transgenic mice", "assay": "Neuroscoring, phenotypic characteristics of NS1 phase", "assay_type": "in vivo, mouse (C57BL/6 SOD1 G93A", "method": "SPT or NaB derivatives at 200 mg/kg per mouse were vortexed at high speed and dissolved in the daily drinking water of the mice. Borate Solutions prepared thus in drinking water were administered to mice by gavage every other day for 3 weeks. The control group received only the same amount of drinking water by gavage.\nIn order to observe during the experiment the stages when early and late symptoms of the disease occur, wild-type and transgenic animals were subjected to neuroscoring as described in the study by Hatzipetros et al. In this way, it was aimed to observe whether the administration to the animals caused any difference in the onset, course and severity of ALS symptoms. For this, the table of the disease course is graded with a scoring System as follows: • 1. Neuro Score 0 (NS 0, Pre-symptomatic): When suspended by the tail, the mouse can fully extend its hindlimbs away from the lateral midline to the side in a normal manner and stay in this position for at least two seconds or longer. When the mouse is allowed to walk, normal gait is observed. • 2. NS 1 (First symptoms): When the mouse is suspended by the tail, its hindlimbs cannot fully extend away from the lateral midline, they partially collapse backwards or the hindlimbs are observed to tremble (tremor). Towards the end of the phase, gait disturbances and slow gait (ataxia) begin. The first symptoms usually appear as of day 90. • 3. NS 2 (Partial paralysis, paresis): When the mouse is suspended by the tail, its hindlimbs are partially or completely collapsed, or cannot extend much, there is still joint movement. When the mouse is allowed to walk, it can use its hindlimbs for forward motion, however it is observed that its toes curl backwards at least twice during a 90 cm walk or it can move by dragging its feet. When the mouse is placed on its left or right side, it is able to right itself within 10 seconds. • 4. NS 3 (Paralysis): When the mouse is suspended by the tail, it is observed that there is rigid paralysis in its hindlimbs or minimal joint movement. When the mouse is allowed to walk, it is observed that there is forward motion however it cannot use its hindlimbs. When the mouse is placed on its left or right side, it is observed that it is able to right itself within 10 seconds. • 5. NS 4 (Humane end-point): When the mouse is suspended by the tail, it is observed that there is rigid paralysis in its hindlimbs. When the mouse is allowed to walk, no motion is observed, when the mouse is placed on its left or right side it is observed that it is not able to right itself within 10 seconds, i.e., absence of righting reflex.\nAccording to this scoring system, if we divide the symptoms observed in animals into phases according to the order of occurrence, 50-80 days after birth can be considered pre-symptomatic. Since as of day 90 the first symptoms start to appear, we can consider this date as the beginning of the early symptomatic phase and also the beginning of neuroscore 1. Although it can vary, this period can last 20-38 days and also covers the neuroscore 2 phase. As of day 120 on average, the process is called late symptomatic. Although it may last a little longer in females, this period lasts 5-10 days on average and neuroscore 3 and 4 phases are also observed during this late symptomatic period"}, "[2]": {"test_system": "gene expression in brain and spinal cord tissues of transgenic mice", "assay": "Microarray gene expression and pathway analysis (PANTHER GO) in brain and spinal cord", "assay_type": "in vivo, mouse (C57BL/6 SOD1 G93A", "settings": "transgenic animals, n=3", "method": "FIG. 2. is a representation of the gene expressions of the other groups compared to the transgenic control group in the form of a heat map, as a result of the microarray analysis performed on the spinal cord materials of the transgenic and wild type experimental groups (n=3 per group) that received NaB, SPT and water only. (Statistical differences between groups were compared using Volcano plot analysis (two-way ANOVA; P values<0.05) and fold change ±2 and more were considered statistically significant).\nFIG. 3. is a representation of some of the pathways in which SPT and NaB derivatives are found to be effective as a result of the pathway analysis (PANTHER Gene Ontology (GO) Classification and Pathway System) and of the number of genes located in these pathways (Total number of genes: 2677, total number of hits: 443).\nIn addition to measurements of motor function, in order to investigate whether derivatives induce any gene-based changes in the Central nervous system, brain and spinal cord materials were collected from wild type and transgenic control (water), NaB and SPT group animals with n=3 and RNA was isolated from these materials and microarray analysis was performed. […]"}, "[3]": {"assay": "Cytotoxicity analysis (MTS)", "assay_type": "cell-based, human", "settings": "human, differentiated sh-sy5y cells, neuronal cells, read-out: non-toxic concentration", "method": "(§1) SHSY5Y cells stocked in cryo tubes at −80° C. or liquid nitrogen were kept in a water bath at 37° C. until completely solved. The solved cells were transferred to 15 ml Falcon tubes containing 5 ml cell medium and centrifuged at 300×g for 5 minutes. After centrifugation, the medium on the cells was removed and the cells were solved with 1 ml of fresh medium using a pipette. Then, the cells were transferred to cell flask containing 12 ml DMEM/F12 medium and incubated at 37° C. for 24±2 hours in an incubator containing 5% CO2.\n(§2) The next day, the medium on the adherent cells was changed and incubation was continued until the cells formed 85%-90% monolayer […]. The medium of the monolayered cells was removed and the cells were washed with 5 ml PBS. […]\n(§3) After the incubation period was completed, the medium on the cells was removed and the cells were washed again with 1 ml PBS. […] At the end of the tenth day, neuronal cells were ready.\n(§4) After the incubation period was completed (24 hours), the medium on the cells was removed and replaced with 10% MTS solution prepared in the cell medium. […] After incubation, absorbance measurements were made using an ELISA plate reader at 490 nm. From the absorbance values obtained, cell viability was calculated according to the formula ((Mean Cell Abs./Mid. Negative Con. Abs.)*100). […]"}, "[4]": {"test_system": "Amyloid beta plaques in SHSY5Y cells differentiated into cholinergic neurons", "assay": "Amyloid beta plaques in Alzheimer's model, immunocytochemistry (fluorescence)", "assay_type": "cell-based, human", "description": "SH-SY5Y cells were seeded in 6-well plates with 250×10^5 cells in each well and incubated with medium containing DMEM/F12, 10% FBS, 1% PSA at 37° C. in 5% CO2 for 24 hours. Then, the medium on the cells was removed and each well was washed with 1 ml PBS. Then, 2 ml of differentiation medium (1% FBS, 10 μM/ml RA) was added to each cell well and cells were incubated for 72 hours.\nAfter the incubation period was completed, the medium on the cells was removed and the cells were washed again with 1 ml PBS. Afterwards, 2 ml of differentiation medium (1% FBS, 10 μM/ml RA, 10 μg/ml BDNF) was added to the cells and incubated for 72 hours. The same procedure was repeated on the seventh day. At the end of the tenth day, neuronal cells were ready.\nObtaining Alzheimer's Model and Evaluation of Active Substances\nImmunocytochemistry Analysis\nThe old media on the incubated cells were removed and the cells were washed three times with 1 ml PBS.\nFirstly, cells were fixed with 1 ml of 2% paraformaldehyde for 30 min at room temperature and then washed three times with PBS. […]\nAfter incubation, the cells were washed three times with PBS. […] Finally, the cells were washed three times with PBS and measurements were taken with a fluorescence microscope (Zeiss).\nThe data obtained from the immunocytochemistry study were analysed using Image J (National Institutes of Health) and MS Excel."}, "[5]": {"test_system": "SOD1 G93A transgenic mice", "assay": "Rotarod test (motor performance) in SOD1 G93A transgenic mice", "assay_type": "in vivo, mouse (C57BL/6 SOD1 G93A", "settings": "200 mg/kg by gavage every other day for 3 weeks; vs transgenic control (water); 14 rpm, max 180 s; n=8", "method": "In the in vivo studies conducted, the SOD1 G93A transgenic mice model, which is one of the most preferred animal models for modeling ALS disease, was used. In the study (n=8); SPT and NaB were administered to the animals every other day by gavage. As a result of the comparison of the motor functions of these transgenic animals that received SPT and NaB throughout the experiment with the motor functions of the transgenic control (water) group, it was observed that SPT increased the performance of the rotarod test by 88.4% in the SOD1 G93A model compared to the control group (P<0.01). […] In the group that received water, it was observed that the findings aggravated over time and the rotarod performance decreased.\nExample 1 Information about the Experimental Animals Used\nExample 2 Experimental Groups\nExample 3 Substance Administration\nSPT or NaB derivatives at 200 mg/kg per mouse were vortexed at high speed and dissolved in the daily drinking water of the mice. […]\nThe mice were acclimatized with the rotarod test apparatus for one day before their motor function was tested and their performance was recorded at the end of the second day. Their motor performances were measured three times for a maximum of 180 seconds at a constant speed of 14 rpm, and their longest residence time on the apparatus was recorded. […]"}, "ALS patients": {"test_system": "ALS patients", "settings": "cited from earlier work"}, "[6]": {"test_system": "SHSY5Y cells differentiated into neuron cells", "assay": "Cytotoxicity analysis (MTS)", "assay_type": "cell-based, human", "settings": "24 hours, neuronal cells", "method": "as §1, §2, §3, §4"}, "[7]": {"settings": "day 90, 200 mg/kg by gavage every other day, tg mice"}, "[8]": {"settings": "day 110, 200 mg/kg by gavage every other day, tg mice"}},
  "data": [
    {"compound": "O.O.O.O.O.O=BO[B-](OB=O)(OB=O)OB=O.[Na+]", "note": "[NaB, sodium; tetrakis(oxoboranyloxy)boranuide; pentahydrate]", "values": [
      {"measurement": "classical symptoms of stage 1 (NS1) at the end of the experiment (hindlimb retraction, tremor and ataxia)", "setting": "[1]; animals still in NS1 at end of experiment, vs control group", "result": "considerably weaker than those in the control group"},
      {"measurement": "s3 (ataxia), day 80 (t = 0)", "setting": "[1]; day 80, before administration, tg mice", "result": "very mild"},
      {"measurement": "s1 (hindlimb retraction), day 90 (onset of the disease-NS1)", "setting": "[1]; [7]", "result": "mild"},
      {"measurement": "s2 (tremor), day 90 (onset of the disease-NS1)", "setting": "[1]; [7]", "result": "mild"},
      {"measurement": "s3 (ataxia), day 90 (onset of the disease-NS1)", "setting": "[1]; [7]", "result": "mild"},
      {"measurement": "s1 (hindlimb retraction), day 110 (experiment endpoint)", "setting": "[1]; [8]", "result": "moderate"},
      {"measurement": "s2 (tremor), day 110 (experiment endpoint)", "setting": "[1]; [8]", "result": "moderate"},
      {"measurement": "s3 (ataxia), day 110 (experiment endpoint)", "setting": "[1]; [8]", "result": "moderate"},
      {"measurement": "gene expression compared to transgenic control / wild type", "setting": "[2]", "result": "reversed the gene expression at a statistically significant rate, approximating it to the gene expression level in wild type animals"},
      {"measurement": "MNTC at 24 h", "setting": "[3]", "result": 5, "unit": "µg/mL"},
      {"measurement": "cells with Amyloid beta plaques", "setting": "[4]; 24 hours, substance alone (ONaB or OAβ group)", "result": 0, "unit": "%"},
      {"measurement": "inhibition at 5 µg/mL", "setting": "[4]; Homo sapiens, SH-SY5Y, 24 h, read-out: plaques dissolved in Aβ+NaB group compared to the OAβ group", "result": 92.4, "unit": "%"},
      {"measurement": "increase in rotarod performance compared to the control group", "setting": "[5]", "result": 62.45, "unit": "%"}
    ]},
    {"compound": "Nc1nc2ccc(OC(F)(F)F)cc2s1", "note": "[Riluzole]", "values": [
      {"measurement": "extension of patient's life span", "setting": "ALS patients", "result": "approximately a few months"}
    ]},
    {"compound": "Amyloid Beta: Amyloid Beta (Aβ), applied to differentiated SHSY5Y cells to create an Alzheimer's model [reference compound]", "values": [
      {"measurement": "non-toxic concentration", "setting": "[6]", "result": 4, "unit": "µg/mL"}
    ]}
  ]
}
